Measurements published in patent US20020192256A1, “Water miscible pesticide containing a synergistic cocktail of plant alkaloids” (priority 2000, published 2002).

System: small green leafhoppers
Experiment: Insecticidal activity of pesticides on small green leafhoppers on tea trees (Table IX)
Type: in vivo
Design: 1d after Spray Efficacy (%) / 3d after Spray Efficacy (%) / 7d after Spray Efficacy (%): concentration or dose not given beside the values
Description: Ninety-eight kilograms of this pesticide was mixed with 2 Kg of imidacloprid with low toxicity to mammals. The mixture was tested for its insecticidal efficacy on small green leafhoppers on tea trees and compared with those of 40% dichlorophos emulsion and imidacloprid, a highly toxic pesticide, and the extract of Sophora alopecuroides as described in section 1) under “Extract of alkaloids from plants”.

| SMILES | 1d after Spray Efficacy (%) | 1d after Spray Pests +/− Rate (%) | 3d after Spray Efficacy (%) | 3d after Spray Pests +/− Rate (%) | 7d after Spray Efficacy (%) | 7d after Spray Pests +/− Rate (%) |
| --- | --- | --- | --- | --- | --- | --- |
| COP(=O)(OC)OC=C(Cl)Cl [Dichlorphos, dichlorophos] | 68.8 | −43.48 | 64.43 | −60.87 | 60.32 | −60.32 |
| O=[N+]([O-])NC1=NCCN1Cc1ccc(Cl)nc1 [Imidacloprid, imidacloprid] | 67.8 | −48.47 | 61.3 | −60.3 | 60.7 | −60.7 |
